Data set [1] is described as follows: Moisture sorption analysis of solid forms. The data set is classed as physicochemical. Conditions: 25° C. On the procedure:
Water sorption and desorption studies were conducted on automated vapor sorption analyzer (TA instruments Q5000 SA). The microbalance was calibrated using a 100 mg standard weight. The relative humidity sensor was calibrated at 5.0, 11.3, 32.8, 52.8, 75.3, and 84.3% RH (25° C.) using saturated salt solutions. Approximately 10-20 mg of crystalline monohydrate 8-((2-fluoro-4-(methylthio)phenyl)amino)-2-(2-hydroxyethoxy)-7-methyl-3,4-dihydro-2,7-naphthyrdine-1,6(2H,7H)-dione, Form 3 was placed in the quartz sample holder and dried at ≤3% relative humidity (RH) at 25° C. […] A maximum equilibration time of 120 minutes was used for all steps. The weight gain at each of the % RH steps is based on the weight after the initial drying step at 0% RH. The weight change of the sample was not used to assess equilibrium and instead all steps were programed to be 120 minutes. After data collection was complete, data analysis was performed using commercially available TA universal analysis software and Microsoft Excel.
FIG. 5 depicts the sorption isotherm of crystalline monohydrate 8-((2-fluoro-4-(methylthio)phenyl)amino)-2-(2-hydroxyethoxy)-7-methyl-3,4-dihydro-2,7-naphthyridine-1,6(2H,7H)-dione, Form 3. […] Crystalline anhydrous 8-((2-fluoro-4-(methylthio)phenyl)amino)-2-(2-hydroxyethoxy)-7-methyl-3,4-dihydro-2,7-naphthyridine-1,6(2H,7H)-dione, Form 2 rehydrates to crystalline monohydrate 8-((2-fluoro-4-(methylthio)phenyl)amino)-2-(2-hydroxyethoxy)-7-methyl-3,4-dihydro-2,7-naphthyridine-1,6(2H,7H)-dione, Form 3 at 25% RH at 25° C. as confirmed by PXRD analysis. Based on this analysis, crystalline anhydrous 8-((2-fluoro-4-(methylthio)phenyl)amino)-2-(2-hydroxyethoxy)-7-methyl-3,4-dihydro-2,7-naphthyridine-1,6(2H,7H)-dione, Form 2 is stable below 10% RH at 25° C., and crystalline monohydrate 8-((2-fluoro-4-(methylthio)phenyl)amino)-2-(2-hydroxyethoxy)-7-methyl-3,4-dihydro-2,7-naphthyridine-1,6(2H,7H)-dione, Form 3 is stable above 30% RH at 25° C.

A short description of data set [2]: MDR1 LLC-PK1 and BCRP MDCKII Permeability Assay: permeability coefficient (Papp). Conditions: MDCK, test article 1 μM, 37° C. The data set is classed as in vitro ADME. The gist of the method:
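Bidirectional (A to B, B to A) transport of test article (1 μM, 1% organic) across MDR1-transfected LLC-PK1 or BCRP-transfected MDCKII (canine P-gp knockout) monolayers, 2 h at 37° C., 5% CO2, in triplicate. Lucifer yellow monitored monolayer integrity. Concentrations measured by LC-MS/MS against labetalol internal standard.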

Data set [3] concerns ERK1/2(Thr202/Tyr204) phosphorylation (MEK-dependent) in A375 cells. Kind of data set: Cellular Phospho-p44/42 MAPK (Erk1/2) (Thr202/Tyr204) Assay. The format is cell-based. Conditions: Homo sapiens, A-375, 1-hour incubation, pERK1/2 (Thr202/Tyr204) In-Cell Western normalized to GAPDH. The gist of the method:
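A375 cells exposed 1 h to 10-point 1:3 dilutions (top 20–1 μM, 0.5% DMSO), then fixed and stained for pERK1/2 (Thr202/Tyr204) by In-Cell Western. Signal normalized to GAPDH per well; DMSO and 1 μM reference inhibitor define 0 and 100% inhibition.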

The next data set deals with T1, P-gp (MDR1) (Homo sapiens, UniProt P08183).
T1 construct: expressed in transfected cells; host or cells: LLC-PK1 (porcine kidney) cells transfected with MDR1
The experiment in a line: Efflux ratio in MDR1 transfected LLC-PK1 cells. The data set is classed as in vitro ADME. As to conditions: pig, Papp(B−A)/Papp(A−B). The gist of the method:
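LLC-PK1 cells transfected with MDR1, test article at 1 μM (1% organic), transport measured A→B and B→A over 2 h at 37° C. Monolayer integrity checked with lucifer yellow, compound quantified by LC-MS/MS. Efflux ratio = Papp(B−A)/Papp(A−B).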

For the next data set, the target named is T2, BCRP (hBCRP) (Homo sapiens, UniProt Q9UNQ0).
T2 construct: expressed in transfected cells; host or cells: MDCKII (canine kidney) cells, canine P-gp knockout, transfected with BCRP
T2 sequence (Q9UNQ0 1-655): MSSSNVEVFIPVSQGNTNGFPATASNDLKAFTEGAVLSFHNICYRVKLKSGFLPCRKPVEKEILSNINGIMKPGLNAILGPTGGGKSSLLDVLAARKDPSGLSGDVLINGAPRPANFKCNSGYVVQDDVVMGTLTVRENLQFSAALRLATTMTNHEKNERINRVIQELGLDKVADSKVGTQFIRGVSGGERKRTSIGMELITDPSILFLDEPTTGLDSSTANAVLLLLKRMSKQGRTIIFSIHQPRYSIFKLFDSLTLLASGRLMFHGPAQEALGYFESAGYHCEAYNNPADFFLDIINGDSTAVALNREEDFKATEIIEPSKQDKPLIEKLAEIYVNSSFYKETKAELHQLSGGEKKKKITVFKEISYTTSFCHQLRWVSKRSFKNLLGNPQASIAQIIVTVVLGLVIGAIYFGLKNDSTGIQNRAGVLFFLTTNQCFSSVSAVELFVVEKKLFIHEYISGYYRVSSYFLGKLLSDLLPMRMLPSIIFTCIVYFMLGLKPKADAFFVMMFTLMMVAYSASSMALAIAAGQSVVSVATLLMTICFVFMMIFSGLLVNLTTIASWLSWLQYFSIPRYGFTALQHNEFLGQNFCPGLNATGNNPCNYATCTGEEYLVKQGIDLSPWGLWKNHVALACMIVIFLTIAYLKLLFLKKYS
Kind of data set: Efflux ratio in BCRP transfected MDCKII canine P-gp knockout cells. Conditions: Papp(B−A)/Papp(A−B), read-out: Efflux ratio MDCKII-hBCRP knock-in,canine pg-P KO. The data set is classed as in vitro ADME. The gist of the method: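 Test article at 1 μM final (1% organic) in A→B and B→A directions across MDCKII P-gp knockout monolayers expressing BCRP, 2 h at 37° C., triplicate; lucifer yellow checked monolayer integrity. Concentrations by LC-MS/MS against labetalol internal standard; efflux ratio = Papp(B−A)/Papp(A−B).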

The term Papp denotes the rate of passage across a membrane or cell layer, normalised by area and donor concentration. The low end stands for poor permeation, the high end for ready permeation. A word on the IC50: it is the concentration that gives 50% inhibition. A high value points to a need for much substance.

T1 sequence (P08183 whole entry): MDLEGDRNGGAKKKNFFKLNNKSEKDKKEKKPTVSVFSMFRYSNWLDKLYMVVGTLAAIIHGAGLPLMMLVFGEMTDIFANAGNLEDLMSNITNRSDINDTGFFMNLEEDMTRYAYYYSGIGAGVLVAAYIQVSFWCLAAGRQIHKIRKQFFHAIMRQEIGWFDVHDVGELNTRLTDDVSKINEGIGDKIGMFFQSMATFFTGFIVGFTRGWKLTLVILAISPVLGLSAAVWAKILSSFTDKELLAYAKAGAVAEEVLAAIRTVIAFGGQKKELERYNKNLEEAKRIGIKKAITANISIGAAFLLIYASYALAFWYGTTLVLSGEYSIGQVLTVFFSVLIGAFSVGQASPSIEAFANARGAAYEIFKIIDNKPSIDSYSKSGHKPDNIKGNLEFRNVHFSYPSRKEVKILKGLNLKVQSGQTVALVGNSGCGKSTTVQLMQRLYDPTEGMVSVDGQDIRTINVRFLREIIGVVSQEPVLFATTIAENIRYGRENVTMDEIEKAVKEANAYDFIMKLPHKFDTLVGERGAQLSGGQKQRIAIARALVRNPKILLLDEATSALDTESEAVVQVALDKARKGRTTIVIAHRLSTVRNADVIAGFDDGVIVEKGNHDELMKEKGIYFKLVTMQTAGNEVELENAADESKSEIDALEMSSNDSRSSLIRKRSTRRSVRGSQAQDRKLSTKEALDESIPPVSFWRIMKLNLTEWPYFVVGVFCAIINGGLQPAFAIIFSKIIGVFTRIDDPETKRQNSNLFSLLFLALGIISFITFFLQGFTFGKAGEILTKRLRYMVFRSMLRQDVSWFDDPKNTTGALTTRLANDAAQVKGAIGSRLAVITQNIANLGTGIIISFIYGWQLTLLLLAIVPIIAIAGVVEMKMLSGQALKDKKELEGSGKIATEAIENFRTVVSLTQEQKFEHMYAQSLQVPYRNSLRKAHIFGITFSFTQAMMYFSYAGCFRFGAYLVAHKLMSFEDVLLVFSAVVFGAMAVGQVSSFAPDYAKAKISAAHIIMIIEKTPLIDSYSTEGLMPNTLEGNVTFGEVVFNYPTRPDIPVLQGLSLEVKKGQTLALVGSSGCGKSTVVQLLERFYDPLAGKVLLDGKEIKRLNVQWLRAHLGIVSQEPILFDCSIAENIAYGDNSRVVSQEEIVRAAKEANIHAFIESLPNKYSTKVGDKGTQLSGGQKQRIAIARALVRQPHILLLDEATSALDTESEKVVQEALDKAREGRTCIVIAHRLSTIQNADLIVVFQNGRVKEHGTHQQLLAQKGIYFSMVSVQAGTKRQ

Take `CSc1ccc(Nc2c3c(cc(=O)n2C)CCN(OCCO)C3=O)c(F)c1` [Form 2, 8-((2-fluoro-4-(methylthio)phenyl)amino)-2-(2-hydroxyethoxy)-7-methyl-3,4-dihydro-2,7-naphthyridine-1,6(2H,7H)-dione]: the “relative humidity at which the solid form is stable” value in data set [1] is on record as “below 10 % RH”. Further, the “relative humidity at which anhydrous Form 2 rehydrates to monohydrate Form 3” value in data set [1] (confirmed by PXRD) is reported as 25 % RH.

Regarding `CSc1ccc(Nc2c3c(cc(=O)n2C)CCN(OCCO)C3=O)c(F)c1` [Form 3, 8-((2-fluoro-4-(methylthio)phenyl)amino)-2-(2-hydroxyethoxy)-7-methyl-3,4-dihydro-2,7-naphthyridine-1,6(2H,7H)-dione], the “relative humidity at which the solid form is stable” value in data set [1] is listed as “above 30 % RH”. Moreover, the “relative humidity at which monohydrate Form 3 dehydrates to anhydrous Form 2” value in data set [1] (confirmed by PXRD) was found to be 15 % RH.

With `CCc1ccc(Nc2c3c(c(C)c(=O)n2C)CCN(OCCO)C3=O)c(F)c1` [Example 44, 8-((4-ethyl-2-fluorophenyl)amino)-2-(2-hydroxyethoxy)-5,7-dimethyl-3,4-dihydro-2,7-naphthyridine-1,6(2H,7H)-dione], the Papp at 2 h, 1 μM in data set [2] turned out to be 33 ×10⁻⁶ cm/s. Besides, the IC50 in data set [3] came out at 13 nM. Also, the figures for the efflux ratio at 2 h, 1 μM at P-gp (MDR1) and at BCRP (hBCRP) were 1.1 and 2.7, respectively.

Consider `CCON1CCc2cc(=O)n(C)c(Nc3ccc(Br)cc3F)c2C1=O` [Example 3, 8-((4-bromo-2-fluorophenyl)amino)-2-ethoxy-7-methyl-3,4-dihydro-2,7-naphthyridine-1,6(2H,7H)-dione], for which, in data set [2], the Papp at 2 h, 1 μM is 46.2 ×10⁻⁶ cm/s. The same molecule registered an IC50 in data set [3] of 456 nM. For the same molecule, the efflux ratio at 2 h, 1 μM worked out at 1 on P-gp (MDR1) and 0.9 at BCRP (hBCRP).

`CCON1CCc2cc(=O)n(C)c(Nc3ccc(I)cc3F)c2C1=O` [Example 28, 2-ethoxy-8-((2-fluoro-4-iodophenyl)amino)-7-methyl-3,4-dihydro-2,7-naphthyrdine-1,6(2H,7H)-dione] returned an apparent permeability (Papp) at 2 h, 1 μM in data set [2] of 26.1 ×10⁻⁶ cm/s. Further, the IC50 in data set [3] is 26 nM. Moreover, the efflux ratio at 2 h, 1 μM at P-gp (MDR1) and at BCRP (hBCRP) was 1.1 each time.

Regarding `Cn1c(Nc2ccc(C3CC3)cc2F)c2c(cc1=O)CCN(OCCO)C2=O` [Example 15, 8-((4-cyclopropyl-2-fluorophenyl)amino)-2-(2-hydroxyethoxy)-7-methyl-3,4-dihydro-2,7-naphthyridine-1,6(2H,7H)-dione], the Papp at 2 h, 1 μM in data set [2] worked out at 27.5 ×10⁻⁶ cm/s. Also, in data set [3], 17 nM corresponded to half-maximal inhibition (IC50). The efflux ratio at 2 h, 1 μM on P-gp (MDR1) worked out at 3.7; at BCRP (hBCRP), 2.2.

`Cn1c(Nc2ccc(Br)cc2F)c2c(c(Br)c1=O)CCN(OCCO)C2=O` [Example 42, 5-bromo-8-((4-bromo-2-fluorophenyl)amino)-2-(2-hydroxyethoxy)-7-methyl-3,4-dihydro-2,7-naphthyridine-1,6(2H,7H)-dione] registered an apparent permeability coefficient (Papp) at 2 h, 1 μM in data set [2] of 29.4 ×10⁻⁶ cm/s. It took 143 nM to reach half-maximal inhibition in data set [3] (IC50). Further, the efflux ratio at 2 h, 1 μM on P-gp (MDR1) was determined as 2.8; at BCRP (hBCRP), 3.3.

In data set [2], `CCc1ccc(Nc2c3c(cc(=O)n2C)CCN(OCCO)C3=O)c(Cl)c1` [Example 23, 8-((2-chloro-4-ethylphenyl)amino)-2-(2-hydroxyethoxy)-7-methyl-3,4-dihydro-2,7-naphthyridine-1,6(2H,7H)-dione] registered a Papp at 2 h, 1 μM of 30.4 ×10⁻⁶ cm/s. Also, the IC50 in data set [3] came out at 26 nM. For the same molecule, the efflux ratio at 2 h, 1 μM worked out at 3.2 on P-gp (MDR1) and 2 on BCRP (hBCRP).

As for `CCc1ccc(Nc2c3c(c(C)c(=O)n2C)CCNC3=O)c(F)c1` [Example 56, 8-((4-ethyl-2-fluorophenyl)amino)-5,7-dimethyl-3,4-dihydro-2,7-naphthyridine-1,6(2H,7H)-dione], in data set [2], the Papp at 2 h, 1 μM is 32.1 ×10⁻⁶ cm/s. In data set [3], this molecule returned an IC50 of 56 nM. For the same molecule, the results for the efflux ratio at 2 h, 1 μM at P-gp (MDR1) and at BCRP (hBCRP) were 0.8 and 1.1, respectively.
